Drawing on patent publication US12264158B2, “Protein kinase MKK4 inhibitors for promoting liver regeneration or reducing or preventing hepatocyte death” (HEPAREGENIX GMBH, priority 2018, dated 2025), this text covers IC50 for 18 compounds.

One assay concerns the target T1, MEKK2 (Homo sapiens, UniProt Q9Y2U5).
T1 construct: purchased ProQinase #0583-0000-1
T1 sequence (Q9Y2U5 1-619): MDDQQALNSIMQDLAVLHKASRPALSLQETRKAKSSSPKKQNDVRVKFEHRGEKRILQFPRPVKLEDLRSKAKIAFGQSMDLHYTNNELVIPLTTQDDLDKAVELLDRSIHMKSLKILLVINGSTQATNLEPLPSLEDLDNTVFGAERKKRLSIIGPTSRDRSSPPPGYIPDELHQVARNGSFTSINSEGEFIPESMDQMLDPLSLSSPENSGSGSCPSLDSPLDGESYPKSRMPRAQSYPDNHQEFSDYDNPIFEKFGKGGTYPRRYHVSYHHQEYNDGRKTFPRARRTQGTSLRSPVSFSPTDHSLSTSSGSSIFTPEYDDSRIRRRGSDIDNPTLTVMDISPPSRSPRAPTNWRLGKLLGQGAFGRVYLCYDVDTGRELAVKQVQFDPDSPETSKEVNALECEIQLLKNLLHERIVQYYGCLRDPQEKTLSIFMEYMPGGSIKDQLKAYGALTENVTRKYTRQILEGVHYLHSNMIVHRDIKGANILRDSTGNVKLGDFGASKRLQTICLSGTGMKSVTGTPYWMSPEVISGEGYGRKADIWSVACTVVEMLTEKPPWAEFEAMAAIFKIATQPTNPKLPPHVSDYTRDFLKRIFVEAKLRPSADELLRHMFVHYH
As to the kind of experiment: Radiometric protein kinase assay, MEKK2. The assay is classed as biochemical. Conditions: substrate Casein, ATP 0.2 μM; read-out: MEKK2, potency derived from IC50-values. The method, then:
(§1) A radiometric protein kinase assay was used for measuring the kinase activity of the respective protein kinases. All kinase assays were performed in 96-well polypropylene plates. After the reactions were stopped, the assay mixtures were transferred to 96-well MSFC filter-plates (Millipore). The reaction mix was passed through the filter membrane by aspiration, the membrane was washed 3 times with 150 mM H3PO4, once with ethanol, dried and liquid scintillation cocktail was added. Radioactivity was determined by counting of the samples in a Microbeta multiwell scintillation counter (Wallac).

A further assay deals with T2, MKK4 active (Homo sapiens, UniProt P45985).
T2 construct: purchased ProQinase #0948-0000-1
T2 sequence (P45985 1-399): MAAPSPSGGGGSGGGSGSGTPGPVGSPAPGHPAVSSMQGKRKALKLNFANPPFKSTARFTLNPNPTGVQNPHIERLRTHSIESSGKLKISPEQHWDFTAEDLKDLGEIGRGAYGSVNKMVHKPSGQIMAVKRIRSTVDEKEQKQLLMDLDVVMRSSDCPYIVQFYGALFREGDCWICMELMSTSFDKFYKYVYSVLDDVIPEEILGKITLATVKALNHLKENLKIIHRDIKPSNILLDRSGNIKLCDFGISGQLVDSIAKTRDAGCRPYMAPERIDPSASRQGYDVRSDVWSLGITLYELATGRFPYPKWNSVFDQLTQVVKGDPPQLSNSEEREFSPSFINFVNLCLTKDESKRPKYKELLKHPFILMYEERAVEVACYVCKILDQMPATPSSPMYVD
The assay is described as follows: Radiometric protein kinase assay, MKK4 active. The assay is classed as biochemical. The following applies: substrate JNK1 KRKR, ATP 0.2 μM, read-out: MKK4, potency derived from IC50-values. The method, then:
as §1

Where only a bound is given, the exact number is not on record here.

A word on the IC50: it is the concentration that gives 50% inhibition. As to `CCCCS(=O)(=O)Nc1cccc(C(=O)c2n[nH]c3ncc(-c4ccc(OC)cc4Cl)cc23)c1F` [Example 41, N-(3-(5-(2-chloro-4-methoxy-phenyl)-1H-pyrazolo[3,4-b]pyridine-3-carbonyl)-2-fluorophenyl)-butane-1-sulfonamide], on MEKK2, the IC50 is above 10000 nM.
Regarding `CCCCS(=O)(=O)Nc1cccc(C(=O)c2n[nH]c3ncc(-c4ccc(F)cc4C)cc23)c1F` [Example 42, N-(2-fluoro-3-(5-(4-fluoro-2-methylphenyl)-1H-pyrazo-lo[3,4-b]pyridine-3-carbonyl)-phenyl)butane-1-sulfonamide], the IC50 at MEKK2 is above 10000 nM.
On the same count and under the same terms, in the case of `CS(=O)(=O)Nc1ccc(F)c(C(=O)c2n[nH]c3ncc(-c4ccc(S(N)(=O)=O)cc4)cc23)c1F` [Example 51b, 4-(3-(2,6-difluoro-3-(methylsulfonamido)benzoyl)-1H-pyrazolo[3,4-b]pyridin-5-yl) benzenesulfonamide] it was 1000 to 10000 nM; in that of `CCCCS(=O)(=O)Nc1ccc(F)c(C(=O)c2n[nH]c3ncc(-c4ccc(S(N)(=O)=O)cc4)cc23)c1F` [Example 51c, 4-(3-(3-(butylsulfonamido)-2,6-difluorobenzoyl)-1H-pyrazolo[3,4-b]pyridin-5-yl) benzenesulfonamide], 1000 to 10000 nM.
For `CCCS(=O)(=O)Nc1ccc(F)c(C(=O)c2n[nH]c3ncc(-c4ccc(NS(C)(=O)=O)cc4)cc23)c1F` [Example 51g, N-(2,4-difluoro-3-(5-(4-(methylsulfonamido)phenyl)-1H-pyrazolo[3,4-b]pyridine-3-carbonyl)phenyl)propane-1-sulfonamide], at MEKK2, the IC50 was 1000 to 10000 nM.
Regarding `CS(=O)(=O)Nc1c(F)ccc(C(=O)c2n[nH]c3ncc(-c4ccc(-c5nnn[nH]5)cc4)cc23)c1F` [Example 54a, N-[2,6-difluoro-3-[5-[4-(1H-tetrazol-5-yl)phenyl]-1H-pyrazolo[3,4-b]pyridine-3-carbonyl]phenyl]methanesulfonamide], the IC50 at MKK4 active was below 500 nM.
Still for that read-out and setting: in the case of `CS(=O)(=O)Nc1c(F)ccc(C(=O)c2n[nH]c3ncc(-c4ccc(C(N)=O)cc4)cc23)c1F` [Example 54b, 4-[3-[2,4-difluoro-3-(methanesulfonamido)benzoyl]-1H-pyrazolo[3,4-b]pyridin-5-yl]benzamide] it was below 500 nM; in that of `CS(=O)(=O)Nc1c(F)ccc(C(=O)c2n[nH]c3ncc(-c4ccc(S(N)(=O)=O)cc4)cc23)c1F` [Example 54c, 4-[3-[2,4-difluoro-3-(methanesulfonamido)benzoyl]-1H-pyrazolo[3,4-b]pyridin-5-yl]benzenesulfonamide], below 500 nM.
Turning to `CS(=O)(=O)Nc1c(F)ccc(C(=O)c2n[nH]c3ncc(-c4ccc(C(=O)O)cc4)cc23)c1F` [Example 55, 4-[3-[2,4-difluoro-3-(methanesulfonamido)benzoyl]-1H-pyrazolo[3,4-b]pyridin-5-yl]benzoic acid], the IC50 at MKK4 active is below 500 nM.
On the same count and under the same terms, in the case of `CCCS(=O)(=O)Nc1c(F)ccc(C(=O)c2n[nH]c3ncc(-c4ccccc4Cl)cc23)c1F` [Example 64, N-(3-(5-(2-chlorophenyl)-1H-pyrazolo[3,4-b]pyridine-3-carbonyl)-2,6-difluorophenyl)propane-1-sulfonamide] it was below 500 nM.
Consider `CCCS(=O)(=O)Nc1c(F)ccc(C(=O)c2n[nH]c3ncc(-c4ccc(C(C)C)cc4)cc23)c1F` [Example 65, N-(2,6-difluoro-3-(5-(4-isopropyl-phenyl)-1H-pyrazolo[3,4-b]pyridine-3-carbonyl)phenyl)propane-1-sulfonamide], for which, on MEKK2, the 50% inhibitory concentration (IC50) is 1000 to 10000 nM.
On the same count and under the same terms, the same measure for `CCCS(=O)(=O)Nc1c(F)ccc(C(=O)c2n[nH]c3ncc(-c4ccc(F)cc4C)cc23)c1F` [Example 66, N-(2,6-difluoro-3-(5-(4-fluoro-2-methylphenyl)-1H-pyrazolo[3,4-b]pyridine-3-carbonyl)phenyl) propane-1-sulfonamide]: 1000 to 10000 nM; for `CCCS(=O)(=O)Nc1c(F)ccc(C(=O)c2n[nH]c3ncc(-c4ccc(S(N)(=O)=O)cc4C)cc23)c1F` [Example 70, 4-(3-(2,4-difluoro-3-(propylsulfonamido)benzoyl)-1H-pyrazolo[3,4-b]pyridin-5-yl)-3-methylbenzenesulfonamide]: 500 to 1000 nM; for `CCCS(=O)(=O)Nc1c(F)ccc(C(=O)c2n[nH]c3ncc(-c4cnc(C(F)(F)F)nc4)cc23)c1F` [Example 71, N-(2,6-difluoro-3-(5-(2-(trifluoromethyl)pyrimidin-5-yl)-1H-pyrazolo[3,4-b]pyridine-3-carbonyl)phenyl)propane-1-sulfonamide]: above 10000 nM.
Still for that read-out and setting: the same measure for `CCCS(=O)(=O)Nc1c(F)ccc(C(=O)c2n[nH]c3ncc(-c4ccc(Cl)cc4C)cc23)c1F` [Example 72]: 1000 to 10000 nM; for `CCCS(=O)(=O)Nc1c(F)ccc(C(=O)c2n[nH]c3ncc(-c4ccc(C5N=NN=N5)cc4)cc23)c1F` [Example 74, N-(3-(5-(4-(1H-tetrazol-5-yl)phenyl)-1H-pyrazolo[3,4-b]pyridine-3-carbonyl)-2,6-difluorophenyl)propane-1-sulfonamide]: 1000 to 10000 nM.
Turning to `O=C(c1ccc(F)c(NS(=O)(=O)Cc2ccccc2)c1F)c1n[nH]c2ncc(-c3ccc(C4N=NN=N4)cc3)cc12` [Example 75, N-(3-(5-(4-(1H-tetrazol-5-yl)phenyl)-1H-pyrazolo[3,4-b]pyridine-3-carbonyl)-2,6-difluorophenyl)-1-phenylmethanesulfonamide], the IC50 at MEKK2 was in the range of 1000 to 10000 nM.
Consider `CCCS(=O)(=O)Nc1c(F)ccc(C(=O)c2n[nH]c3ncc(-c4ccc(O)cc4)cc23)c1F` [Example 76, N-(2,6-difluoro-3-(5-(4-hydroxyphenyl)-1H-pyrazolo[3,4-b]pyridine-3-carbonyl)phenyl)propane-1-sulfonamide], for which, at MKK4 active, the IC50 is below 500 nM.
